Source: ChEMBL document CHEMBL1123175, “Synthesis and biological activity of several amino nucleoside-platinum(II) complexes” (1986)

Legend:
L1210 [1] = assay: Compound was tested for the inhibition of the transport of aminoisobutyric acid into L1210 cells at the 10 uM concentration after <20 min; format: functional; conditions: Mus musculus
L1210 [2] = assay: Compound was tested for the inhibition of the transport of methionine into L1210 cells at the 10 uM concentration after <20 min; format: functional; conditions: Mus musculus

Row | Sequence | inhibition (L1210 [1]) [%] | inhibition (L1210 [2]) [%]
1 | CISPLATIN | 15 | 10
2 | TRANSPLATIN | < 5 | < 5
